Tests used:
rat EP4 receptor = rat EP4 receptor (Rattus norvegicus, UniProt P43114); experiment: EP4 receptor occupancy estimation from plasma exposure; details: 3 mg/kg; repeated doses
Method: CR6086 concentrations in rat plasma were determined by high-performance liquid chromatography (Agilent 1200 series; Agilent Technologies, Santa Clara, CA, USA) coupled with a triple-quadrupole mass spectrometer (API 4000 QTRAP; SCIEX, Concord, ON, Canada). A ZORBAX SB-C18 2.0 × 50-mm, 3.5-μm column (Agilent Technologies) in isocratic conditions was used with mobile phase 0.1% formic acid in water/acetonitrile (68:32 vol/vol). The method was linear within the dynamic range 1.0–10,000 ng/ml (lower to upper limit of quantification). CR6086 plasma protein binding was determined in the 0.2–200 μM concentration range using [^14C]CR6086 and equilibrium dialysis. EP4 receptor occupancy (RO) was calculated on the basis of CR6086 concentrations according to the following formula: RO%=Cave/Cave+Ki×100,
An estimation of the receptor occupancy was attempted in the dose range investigated in CIA rats. Because the CIA experiments were conducted after repeated doses, whereas the exposure shown above was determined after a single dose of CR6086, receptor occupancy estimation in the CIA rats took into consideration the accumulation ratio of CR6086 after repeated doses averaging 1.19 in male rats. […] Thus, in our experiments, clinically relevant effects in the CIA rat model were observed starting from approximately 50% EP4 receptor occupancy. […]

D5 = D5 (Homo sapiens, UniProt P21918); experiment: Dopamine receptor D5 binding; details: [^3H]SCH 23390, Human recombinant GH4 cells, read-out: CR6086 Activity at 10µM
Chain of D5 (P21918 whole entry): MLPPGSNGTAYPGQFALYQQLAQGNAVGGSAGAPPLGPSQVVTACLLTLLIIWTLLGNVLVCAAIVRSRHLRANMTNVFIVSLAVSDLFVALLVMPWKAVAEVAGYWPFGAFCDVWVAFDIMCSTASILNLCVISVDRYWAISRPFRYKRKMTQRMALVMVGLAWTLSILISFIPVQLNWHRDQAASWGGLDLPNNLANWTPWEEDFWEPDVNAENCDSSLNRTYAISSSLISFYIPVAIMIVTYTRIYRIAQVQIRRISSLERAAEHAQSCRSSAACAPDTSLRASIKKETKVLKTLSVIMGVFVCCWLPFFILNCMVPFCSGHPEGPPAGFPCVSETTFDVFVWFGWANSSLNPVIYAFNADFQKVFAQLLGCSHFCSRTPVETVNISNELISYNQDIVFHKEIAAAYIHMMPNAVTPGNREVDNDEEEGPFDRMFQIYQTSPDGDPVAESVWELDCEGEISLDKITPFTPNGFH

NOP (ORL1) = NOP (ORL1) (Homo sapiens, UniProt P41146); experiment: Opioid receptor NOP (ORL1) binding; details: [^3H]nociceptin, Human recombinant HEK-293 cells, read-out: CR6086 Activity at 10µM
Chain of NOP (ORL1) (P41146 whole entry): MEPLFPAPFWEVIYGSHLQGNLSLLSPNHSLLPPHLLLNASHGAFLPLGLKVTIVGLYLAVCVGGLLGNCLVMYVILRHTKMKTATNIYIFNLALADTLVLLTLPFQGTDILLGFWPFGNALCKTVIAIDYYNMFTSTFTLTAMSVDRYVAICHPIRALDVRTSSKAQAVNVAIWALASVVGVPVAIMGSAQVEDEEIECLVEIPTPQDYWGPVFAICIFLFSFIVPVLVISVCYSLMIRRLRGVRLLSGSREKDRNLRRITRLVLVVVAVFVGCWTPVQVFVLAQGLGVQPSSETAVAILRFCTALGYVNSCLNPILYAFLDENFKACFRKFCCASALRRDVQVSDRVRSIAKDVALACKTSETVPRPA

IL-17 release = IL-17 release from human Th17 cells; format: cell-based; details: Homo sapiens; at 1 μM; 48 and 72 h
Method: PBMCs were purified using Histopaque. CD4^+CD45^+ naive T cells were indirectly selected in a magnetic field (MACS; Miltenyi Biotec). Purified CD4^+ cells were subsequently cultured for 7 days in differentiation medium (RPMI 1640 + FBS 10%, IL-6 30 ng/ml, transforming growth factor [TGF]-β 2.25 ng/ml, IL-23 30 ng/ml, IL-1β 20 ng/ml, anti-interferon (IFN)-γ 1 ng/ml and anti-IL-4 2.5 ng/ml). Th17 cell expansion was stimulated by addition of anti-CD3/[…]anti-CD28 beads to the medium with a cell-to-beads ratio of 1:2. Th17 cells were stimulated with IL-6 30 ng/ml, TGF-β 2.25 ng/ml, IL-23 30 ng/ml, IL-1β 20 ng/ml and PGE2 10 nM for 48 h in the presence of CR6086 (0.03–10 μM) or naproxen (1–10 μM). IL-17 release was measured by ELISA (Abcam, Cambridge, UK).

[1] = system: Ca2+ channel (L, verapamil site); experiment: Ion channel Ca2+ (L, verapamil site) binding; details: up to 100µM (cell); [^3H]verapamil [^3H]D888; Rat cerebral cortex
5-HT5a = 5-HT5a (Homo sapiens, UniProt P47898); experiment: Serotonin receptor 5-HT5a binding; details: [^3H]LSD, Human recombinant HEK-293 cells, read-out: CR6086 Activity at 10µM
Chain of 5-HT5a (P47898 whole entry): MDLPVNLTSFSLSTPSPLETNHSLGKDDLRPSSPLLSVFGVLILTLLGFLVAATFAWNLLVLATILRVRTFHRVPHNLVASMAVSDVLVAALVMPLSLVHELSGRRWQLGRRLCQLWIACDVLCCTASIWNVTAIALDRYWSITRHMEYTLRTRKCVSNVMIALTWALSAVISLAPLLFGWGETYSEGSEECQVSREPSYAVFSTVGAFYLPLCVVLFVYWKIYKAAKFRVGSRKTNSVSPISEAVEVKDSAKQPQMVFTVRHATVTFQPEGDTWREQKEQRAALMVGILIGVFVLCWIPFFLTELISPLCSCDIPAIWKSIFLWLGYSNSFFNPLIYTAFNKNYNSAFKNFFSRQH

COX-2 = target: T1, COX-2 (Homo sapiens, UniProt P35354); experiment: Cyclooxygenase COX-2 enzymatic activity; format: biochemical; details: Sf9 cells, read-out: CR6086 Activity at 10µM
T1 construct: host or cells: Sf9 cells
T1 sequence (P35354 18-604): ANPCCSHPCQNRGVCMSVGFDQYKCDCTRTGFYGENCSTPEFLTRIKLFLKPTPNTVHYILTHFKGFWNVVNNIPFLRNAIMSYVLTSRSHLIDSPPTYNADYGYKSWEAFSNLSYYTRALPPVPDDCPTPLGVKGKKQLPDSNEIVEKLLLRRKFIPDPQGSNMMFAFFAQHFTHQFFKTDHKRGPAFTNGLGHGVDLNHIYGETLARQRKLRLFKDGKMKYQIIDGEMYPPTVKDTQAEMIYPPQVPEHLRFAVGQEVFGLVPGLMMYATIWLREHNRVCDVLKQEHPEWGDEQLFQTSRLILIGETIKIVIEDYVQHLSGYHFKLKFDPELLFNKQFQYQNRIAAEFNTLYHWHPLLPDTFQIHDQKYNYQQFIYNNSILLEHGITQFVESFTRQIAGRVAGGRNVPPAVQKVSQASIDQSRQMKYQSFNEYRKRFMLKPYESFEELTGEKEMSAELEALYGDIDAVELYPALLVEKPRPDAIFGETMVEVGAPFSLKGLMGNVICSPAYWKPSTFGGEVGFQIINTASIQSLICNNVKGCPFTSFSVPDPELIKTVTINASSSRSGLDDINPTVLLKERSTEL

GR = GR (Homo sapiens, UniProt P04150); experiment: Nuclear receptor GR binding; details: [^3H]dexamethasone, IM-9 cells (cytosol), read-out: CR6086 Activity at 10µM
β2 = β2 (Homo sapiens, UniProt P07550); experiment: Adrenergic receptor β2 binding; details: [^3H](-)CGP 12177, Human recombinant CHO cells, read-out: CR6086 Activity at 10µM
ETB = ETB (Homo sapiens, UniProt P24530); experiment: Endothelin receptor ETB binding; details: [^125I]endothelin-1, Human recombinant CHO cells, read-out: CR6086 Activity at 10µM
Chain of ETB (P24530 27-442): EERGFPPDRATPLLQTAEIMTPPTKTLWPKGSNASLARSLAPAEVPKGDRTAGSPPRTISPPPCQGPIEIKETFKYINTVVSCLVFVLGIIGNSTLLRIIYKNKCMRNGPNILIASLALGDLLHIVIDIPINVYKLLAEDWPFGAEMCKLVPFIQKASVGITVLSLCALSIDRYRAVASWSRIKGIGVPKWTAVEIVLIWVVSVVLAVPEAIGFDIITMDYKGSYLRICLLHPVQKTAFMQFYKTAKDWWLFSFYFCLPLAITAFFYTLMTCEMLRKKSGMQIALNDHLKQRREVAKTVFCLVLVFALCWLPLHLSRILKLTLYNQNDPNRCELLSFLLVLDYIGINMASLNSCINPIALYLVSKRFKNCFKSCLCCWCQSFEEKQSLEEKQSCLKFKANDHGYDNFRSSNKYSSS

5-HT transporter = 5-HT transporter (Homo sapiens, UniProt P31645); experiment: 5-HT transporter binding; details: [^3H]imipramine, Human recombinant CHO cells, read-out: CR6086 Activity at 10µM
Chain of 5-HT transporter (P31645 whole entry): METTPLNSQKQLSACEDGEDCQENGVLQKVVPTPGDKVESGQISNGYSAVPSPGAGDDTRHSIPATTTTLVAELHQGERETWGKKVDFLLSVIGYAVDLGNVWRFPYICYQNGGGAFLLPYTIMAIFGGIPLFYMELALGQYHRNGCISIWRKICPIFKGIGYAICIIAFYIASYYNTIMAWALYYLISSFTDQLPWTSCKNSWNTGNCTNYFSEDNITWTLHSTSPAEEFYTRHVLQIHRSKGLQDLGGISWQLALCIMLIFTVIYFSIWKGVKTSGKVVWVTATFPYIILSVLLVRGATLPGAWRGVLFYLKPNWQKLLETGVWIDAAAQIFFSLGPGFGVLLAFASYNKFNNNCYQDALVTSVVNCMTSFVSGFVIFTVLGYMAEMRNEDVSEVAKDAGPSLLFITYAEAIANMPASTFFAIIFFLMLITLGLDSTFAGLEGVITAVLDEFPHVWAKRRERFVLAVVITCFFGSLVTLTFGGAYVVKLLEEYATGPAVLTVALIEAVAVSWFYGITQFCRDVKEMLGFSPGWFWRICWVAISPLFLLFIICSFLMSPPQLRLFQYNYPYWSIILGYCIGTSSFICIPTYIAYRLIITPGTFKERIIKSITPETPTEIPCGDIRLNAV

CysLT1 (Cys-LTs) = CysLT1 (Cys-LTs) (Homo sapiens, UniProt Q9Y271); experiment: Eicosanoid receptor CysLT1 binding; details: [^3H]LTD4, HEK-293 cells, read-out: CR6086 Activity at 10µM
Chain of CysLT1 (Cys-LTs) (Q9Y271 whole entry, species assumed): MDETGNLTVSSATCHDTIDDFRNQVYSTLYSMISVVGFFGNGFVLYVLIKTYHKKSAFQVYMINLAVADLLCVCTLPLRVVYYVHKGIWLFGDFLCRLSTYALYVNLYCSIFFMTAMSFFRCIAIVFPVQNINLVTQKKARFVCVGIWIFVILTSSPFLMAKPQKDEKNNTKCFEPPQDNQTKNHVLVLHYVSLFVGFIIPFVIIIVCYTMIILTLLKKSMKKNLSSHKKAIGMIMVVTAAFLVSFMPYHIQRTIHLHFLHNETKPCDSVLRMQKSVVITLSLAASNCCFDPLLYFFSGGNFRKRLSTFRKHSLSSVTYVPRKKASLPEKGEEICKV

CB1 = CB1 (Homo sapiens, UniProt P21554); experiment: Cannabinoid receptor CB1 binding; details: [^3H]CP 55940, Human recombinant CHO cells, read-out: CR6086 Activity at 10µM
Chain of CB1 (P21554 whole entry): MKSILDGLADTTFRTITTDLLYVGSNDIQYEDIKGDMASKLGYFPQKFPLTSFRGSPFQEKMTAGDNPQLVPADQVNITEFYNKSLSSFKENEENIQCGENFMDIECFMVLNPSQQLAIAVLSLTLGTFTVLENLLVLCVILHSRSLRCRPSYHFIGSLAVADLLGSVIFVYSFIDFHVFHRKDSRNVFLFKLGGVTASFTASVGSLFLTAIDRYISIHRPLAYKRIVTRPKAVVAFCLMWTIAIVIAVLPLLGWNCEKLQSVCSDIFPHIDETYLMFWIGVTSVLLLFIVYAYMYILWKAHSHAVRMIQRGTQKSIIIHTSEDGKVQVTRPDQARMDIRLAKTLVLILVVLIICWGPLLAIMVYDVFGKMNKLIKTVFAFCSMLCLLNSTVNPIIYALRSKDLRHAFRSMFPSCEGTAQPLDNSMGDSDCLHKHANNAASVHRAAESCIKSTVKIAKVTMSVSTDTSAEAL

TP (TXA2/PGH2) = TP (TXA2/PGH2) (Homo sapiens, UniProt P21731); experiment: Eicosanoid receptor TP binding; details: [^3H]SQ 29548, HEK-293 cells, read-out: CR6086 Activity at 10µM
Chain of TP (TXA2/PGH2) (P21731 whole entry): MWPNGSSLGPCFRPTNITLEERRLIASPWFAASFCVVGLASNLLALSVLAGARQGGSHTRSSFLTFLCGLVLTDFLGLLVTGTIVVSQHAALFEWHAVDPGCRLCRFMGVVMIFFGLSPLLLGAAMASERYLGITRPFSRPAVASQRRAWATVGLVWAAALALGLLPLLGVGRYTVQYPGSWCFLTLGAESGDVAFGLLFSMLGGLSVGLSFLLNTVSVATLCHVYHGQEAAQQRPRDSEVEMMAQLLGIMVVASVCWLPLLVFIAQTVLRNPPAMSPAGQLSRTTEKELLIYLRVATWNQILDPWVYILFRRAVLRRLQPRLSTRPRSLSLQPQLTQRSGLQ

5-HT1A = 5-HT1A (Homo sapiens, UniProt P08908); experiment: Serotonin receptor 5-HT1A binding; details: [^3H]8-OH-DPAT, Human recombinant HEK-293 cells, read-out: CR6086 Activity at 10µM
Chain of 5-HT1A (P08908 whole entry): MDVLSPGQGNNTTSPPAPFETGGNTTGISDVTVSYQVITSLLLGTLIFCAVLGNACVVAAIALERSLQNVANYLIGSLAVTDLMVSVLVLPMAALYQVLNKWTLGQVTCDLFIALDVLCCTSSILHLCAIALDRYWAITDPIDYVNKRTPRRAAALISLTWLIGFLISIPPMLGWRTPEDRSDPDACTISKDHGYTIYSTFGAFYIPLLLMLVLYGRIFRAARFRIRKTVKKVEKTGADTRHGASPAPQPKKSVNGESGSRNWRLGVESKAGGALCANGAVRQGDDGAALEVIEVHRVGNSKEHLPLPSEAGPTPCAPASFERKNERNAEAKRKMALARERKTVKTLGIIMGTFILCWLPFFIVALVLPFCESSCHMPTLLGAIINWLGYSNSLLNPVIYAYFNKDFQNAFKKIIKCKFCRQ

µ (MOP) = µ (MOP) (Homo sapiens, UniProt P35372); experiment: Opioid receptor µ (MOP) binding; details: [^3H]DAMGO, Human recombinant HEK-293 cells, read-out: CR6086 Activity at 10µM
TNF-α = TNF-α receptor binding; details: [^125I]TNF-α, U-937 cells
[2] = system: arthritic mice (collagen-induced arthritis model); experiment: CIA in mice, second study: serum cytokines and signal limb histology; format: in vivo, mouse; details: 10 days
[3] = 30 mg/kg oral daily, mean ± SEM
[4] = 60 mg/kg oral daily, mean ± SEM

Chain of rat EP4 receptor (P43114 whole entry): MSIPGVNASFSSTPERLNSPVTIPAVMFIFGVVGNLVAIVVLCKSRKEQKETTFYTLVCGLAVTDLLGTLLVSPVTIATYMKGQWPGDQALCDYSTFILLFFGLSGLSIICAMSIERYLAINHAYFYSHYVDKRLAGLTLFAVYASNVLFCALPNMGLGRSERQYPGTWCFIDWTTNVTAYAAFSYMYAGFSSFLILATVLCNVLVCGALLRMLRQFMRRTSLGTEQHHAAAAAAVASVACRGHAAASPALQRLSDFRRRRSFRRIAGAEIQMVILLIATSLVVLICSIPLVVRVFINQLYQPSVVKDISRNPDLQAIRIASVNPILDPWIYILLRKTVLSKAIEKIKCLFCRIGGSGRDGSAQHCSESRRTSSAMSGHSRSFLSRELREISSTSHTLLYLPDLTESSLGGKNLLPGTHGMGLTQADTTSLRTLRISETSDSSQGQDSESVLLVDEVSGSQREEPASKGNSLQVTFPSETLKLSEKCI

**Q.** `O=C([O-])c1ccc(C2(NC(=O)[C@H]3CC4(CCN3Cc3ccc(C(F)(F)F)cc3)CC4)CC2)cc1.[Na+]` [CR6086, Sodium (R)-4-(1-(6-(4-(trifluoromethyl)benzyl)-6-azaspiro[2.5]octane-5-carboxamido)cyclopropyl)benzoate] was tested. Which “estimated EP4 receptor occupancy” value (rat EP4 receptor) did it give?
**A.** approximately 50%

**Q.** And the inhibition at 10 µM (D5)?
**A.** < 20%

**Q.** And the inhibition at 10 µM (NOP (ORL1))?
**A.** < 20%

**Q.** And the inhibition at 1 µM (IL-17 release)?
**A.** 100%

**Q.** What about the “CR6086 Activity at 10µM” value [1] of the same molecule?
**A.** IN up to 100µM (IN = < 20% displacement or inhibition (all tables))

**Q.** And the inhibition at 10 µM (5-HT5a)?
**A.** < 20%

**Q.** And the inhibition at 10 µM (COX-2)?
**A.** < 20%

**Q.** And the inhibition at 10 µM (GR)?
**A.** < 20%

**Q.** What about the inhibition at 10 µM (β2) of the same molecule?
**A.** < 20%

**Q.** What about the inhibition at 10 µM (ETB) of the same molecule?
**A.** < 20%

**Q.** What about the inhibition at 10 µM (5-HT transporter) of the same molecule?
**A.** < 20%

**Q.** What about the inhibition at 10 µM (CysLT1 (Cys-LTs)) of the same molecule?
**A.** < 20%

**Q.** What about the inhibition at 10 µM (CB1) of the same molecule?
**A.** < 20%

**Q.** And the inhibition at 10 µM (TP (TXA2/PGH2))?
**A.** < 20%

**Q.** And the inhibition at 10 µM (5-HT1A)?
**A.** < 20%

**Q.** What about the inhibition at 10 µM (µ (MOP)) of the same molecule?
**A.** < 20%

**Q.** And the “CR6086 Activity at 10µM” value (TNF-α)?
**A.** IN (IN = < 20% displacement or inhibition (all tables))

**Q.** What about the IFNγ serum concentration [2, 3] of the same molecule?
**A.** 1.79 ± 0.32 pg/mL

**Q.** What about the IL-10 serum concentration [2, 3] of the same molecule?
**A.** 16.17 ± 1.95 pg/mL

**Q.** And the IL-17 serum concentration [2, 3]?
**A.** 2.36 ± 0.62 pg/mL

**Q.** And the TNFα serum concentration [2, 3]?
**A.** 34.37 ± 2.21 pg/mL

**Q.** What about the IL-10 serum concentration [2, 4] of the same molecule?
**A.** 18.16 ± 2.65 pg/mL

**Q.** And the IL-17 serum concentration [2, 4]?
**A.** 0.92 ± 0.20 pg/mL

**Q.** And the TNFα serum concentration [2, 4]?
**A.** 33.67 ± 3.58 pg/mL

**Q.** And the “effect on IL-6 mean serum concentrations” value ([2]; 60 mg/kg oral once daily)?
**A.** returned towards normal levels

**Q.** And the “histological scores of the signal limb” value ([2]; 30 and 60 mg/kg oral once daily)?
**A.** acts as a disease modifier
